Activity calls are given as the source filed them. The rule behind the calls is not given here.

The target of test [1] is T1, Porphobilinogen deaminase (Homo sapiens) (UniProt P08397).
T1 sequence (whole entry): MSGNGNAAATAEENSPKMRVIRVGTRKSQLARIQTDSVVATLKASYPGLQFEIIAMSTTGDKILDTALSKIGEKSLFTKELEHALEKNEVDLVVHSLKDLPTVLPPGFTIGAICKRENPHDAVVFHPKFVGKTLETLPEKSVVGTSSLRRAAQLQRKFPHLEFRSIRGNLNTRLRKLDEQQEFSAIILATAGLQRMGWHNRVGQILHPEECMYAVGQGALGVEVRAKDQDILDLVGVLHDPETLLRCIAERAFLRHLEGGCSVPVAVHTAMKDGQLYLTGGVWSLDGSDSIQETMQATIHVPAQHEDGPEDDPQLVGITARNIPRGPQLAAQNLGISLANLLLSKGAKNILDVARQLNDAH
The following applies: at 100 µM.
Description: Compound was evaluated for the inhibition of human HMBS at 100uM

Test [2] deals with T2, Ferrochelatase, mitochondrial (Homo sapiens) (UniProt P22830).
T2 sequence (whole entry): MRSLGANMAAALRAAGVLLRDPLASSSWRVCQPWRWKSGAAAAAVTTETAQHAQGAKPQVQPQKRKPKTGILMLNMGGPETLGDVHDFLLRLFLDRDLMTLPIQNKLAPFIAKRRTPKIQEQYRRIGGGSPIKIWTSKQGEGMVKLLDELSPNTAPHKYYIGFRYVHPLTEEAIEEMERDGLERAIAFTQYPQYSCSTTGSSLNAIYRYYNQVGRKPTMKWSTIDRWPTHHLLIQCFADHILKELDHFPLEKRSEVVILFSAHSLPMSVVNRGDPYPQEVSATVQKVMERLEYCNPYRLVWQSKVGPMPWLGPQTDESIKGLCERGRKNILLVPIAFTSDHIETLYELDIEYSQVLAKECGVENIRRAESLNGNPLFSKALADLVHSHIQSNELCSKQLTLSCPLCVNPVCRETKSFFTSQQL
The following applies: at 10 µM.
Description: Compound was evaluated for the inhibition of human FECH at 10uM

In the case of `O=C(Nc1nnc(-c2ccc(Cl)s2)o1)c1ccc(Cl)s1`, the inhibition entry in test [1] and in test [2] was “inactive” each time.

Consider `CO[C@H]1/C=C\O[C@@]2(C)Oc3c(C)c(O)c4c(O)c(/c(=C/NN5CCN(C)CC5)c(O)c4c3C2=O)=N\C(=O)/C(C)=C\C=C/[C@H](C)[C@H](O)[C@@H](C)[C@@H](O)[C@@H](C)[C@H](OC(C)=O)[C@@H]1C`, for which the inhibition result in test [1] and in test [2] was “inactive” each time.

Turning to `O=C1COCc2ccc(Br)cc2N1Cc1ccc(C(F)(F)F)cc1`, the inhibition entry in test [1] and in test [2] was “inactive” throughout.

Regarding `Cc1ccc(C(=O)Nc2ccc(S(=O)(=O)O)c3cc(S(=O)(=O)O)cc(S(=O)(=O)O)c23)cc1NC(=O)c1cccc(NC(=O)Nc2cccc(C(=O)Nc3cc(C(=O)Nc4ccc(S(=O)(=O)O)c5cc(S(=O)(=O)O)cc(S(=O)(=O)O)c45)ccc3C)c2)c1`, the inhibition result in test [1] and in test [2] was “inactive” each time.

`Cc1cc(Nc2ccc(C(F)(F)F)cc2)n2ccnc2n1`: the inhibition result in test [1] and in test [2] was “inactive” in each case.

Turning to `Cc1ccc2nc(Cl)c(CNCc3cccs3)cc2c1`, the inhibition entry in test [1] and in test [2] was “inactive” each time.

Turning to `CNc1snc(C)c1C(=O)NCCOc1ccc(OC)cc1`, the inhibition result in test [1] and in test [2] was “inactive” in each case.

`CC(C)(C)OC(=O)N1CCN(c2nccc(-c3ccc(-c4ccc(Cl)cc4)s3)n2)CC1`: the inhibition result in test [1] and in test [2] was “inactive” each time.

With `O=C(CCC1CCCCC1)Nc1cccc(-c2nnc(-c3ccco3)o2)c1`, the inhibition result in test [1] and in test [2] was “inactive” each time.

For `COc1cccc(-n2nnnc2S(C)(=O)=O)c1`, the inhibition entry in test [1] and in test [2] was “inactive” each time.

Take `O=C(NC1CC1)c1ccc(CSCc2ccccc2Cl)o1`: the inhibition result in test [1] and in test [2] was “inactive” each time.

`O=C1Nc2ccc(Br)cc2C12NCCc1c2[nH]c2ccccc12` (stereo unspecified): the inhibition result in test [1] and in test [2] was “inactive” in each case.

As to `Brc1c(-c2ccc3c(c2)OCO3)nc2ncccn12`, the inhibition entry in test [1] and in test [2] was “inactive” each time.

With `O=C(Nc1cccnc1)c1c(O)c2cccc3c2n(c1=O)CC3`, the inhibition result in test [1] and in test [2] was “inactive” each time.

Regarding `CC(C)(C)n1nc(Cc2ccc(F)c(Cl)c2)c2c(N)ncnc21`, the inhibition entry in test [1] and in test [2] was “inactive” in each case.

With `O=[N+]([O-])c1cn2c(n1)OC[C@@H](OCc1ccc(OC(F)(F)F)cc1)C2`, the inhibition result in test [1] and in test [2] was “inactive” each time.

On to `Oc1c(I)cc(I)c2cccnc12`, for which the inhibition result in test [1] and in test [2] was “inactive” each time.

In the case of `C[C@H]1c2cccc(O)c2C(=O)C2=C(O)[C@]3(O)C(=O)C(C(N)=O)=C(O)[C@@H](N(C)C)[C@@H]3[C@@H](O)[C@@H]21`, the inhibition entry in test [1] and in test [2] was “inactive” each time.

In the case of `CCCCN(CCCC)c1c(C#N)cc(S(=O)(=O)Nc2ccccc2)cc1C#N`, the inhibition entry in test [1] and in test [2] was “inactive” throughout.

Turning to `COc1ccc(C2=NN(C3CCCCCC3)C(=O)C2(C)C)cc1OCCCCOc1ccc(-c2nn[nH]n2)cc1`, the inhibition entry in test [1] and in test [2] was “inactive” throughout.

As to `Cc1nn(C(=O)Nc2cccc(C(F)(F)F)c2)c(C)c1Sc1ncccn1`, the inhibition result in test [1] and in test [2] was “inactive” in each case.

`CCOc1ccc2cc(-c3nn(CC4CCN(C)CC4)c4ncnc(N)c34)ccc2c1`: the inhibition entry in test [1] and in test [2] was “inactive” each time.

With `CCCCOC(=O)Nc1cc2nc(C3CCCCC3)[nH]c2cc1N1CCCC1`, the inhibition entry in test [1] and in test [2] was “inactive” throughout.

`CC(=O)NCC1CN(c2ccc(-c3ccc(CO)cc3)c(F)c2)C(=O)O1` (stereo unspecified): the inhibition entry in test [1] and in test [2] was “inactive” in each case.

`c1coc(CNc2nc(N3CCCCC3)nc3ccccc23)c1`: the inhibition entry in test [1] and in test [2] was “inactive” each time.

Turning to `Cc1cc(OCC(=O)NCc2ccccc2)c2cc(Br)ccc2n1`, the inhibition result in test [1] and in test [2] was “inactive” in each case.

Take `c1ccc(Oc2ccc(-c3cc(C4CCOCC4)[nH]n3)cc2)cc1`: the inhibition entry in test [1] and in test [2] was “inactive” throughout.

As for `COc1ccc(C2CC(c3cccs3)=NN2C(=O)c2ccco2)cc1OC` (stereo unspecified), the inhibition entry in test [1] and in test [2] was “inactive” throughout.

As for `CCC(Sc1nc2ccccc2o1)C(=O)Nc1nnc(C)s1` (stereo unspecified), the inhibition entry in test [1] and in test [2] was “inactive” in each case.

For the compound `CC(=O)NC[C@@H]1CN(c2ccc(N3CCOCC3)c(F)c2)C(=O)O1`, the inhibition entry in test [1] and in test [2] was “inactive” in each case.

Turning to `CC(C(=O)N1CCCC1)N1CCN(S(=O)(=O)c2ccc(C(C)(C)C)cc2)CC1` (stereo unspecified), the inhibition result in test [1] and in test [2] was “inactive” each time.

For the compound `CN(C)c1cc(NC(=O)Nc2ccccc2)c2ccccc2n1`, the inhibition result in test [1] and in test [2] was “inactive” each time.

Turning to `NCCC(O)C(=O)N[C@@H]1C[C@H](N)[C@@H](OC2O[C@H](CN)[C@@H](O)[C@H](O)[C@H]2O)[C@H](O)C1OC1O[C@H](CO)[C@@H](O)[C@H](N)[C@H]1O` (stereo partly specified), the inhibition entry in test [1] and in test [2] was “inactive” throughout.

Consider `CS(=O)(=O)N1CCC(Cn2nc(Cc3cccc4ccccc34)c3c(N)ncnc32)CC1`, for which the inhibition result in test [1] and in test [2] was “inactive” throughout.

As to `COc1ccc2nccc(NC(=O)C3CCN(CCc4ccc(Cl)cc4)CC3)c2n1`, the inhibition entry in test [1] and in test [2] was “inactive” throughout.

On to `Cc1cc(C)c2cc(C(=O)NC3CCCCCCC3)[nH]c2c1`, for which the inhibition result in test [1] and in test [2] was “inactive” each time.

For `COC(=O)c1c(NC(=O)c2cc3ccccc3oc2=O)sc2c1CCN(Cc1ccccc1)C2`, the inhibition result in test [1] and in test [2] was “inactive” in each case.

Turning to `CS(=O)(=O)N1CCC(CCn2nc(Cc3cccc4ccccc34)c3c(N)ncnc32)CC1`, the inhibition entry in test [1] and in test [2] was “inactive” throughout.

With `O=C(C1CCN(c2nnc(-n3cccc3)s2)CC1)N1CCC(Cc2ccccc2)CC1`, the inhibition result in test [1] and in test [2] was “inactive” throughout.

On to `CC(C)(C)c1cc(C(=O)Nc2cccnc2)cc(C(=O)Nc2cccnc2)c1`, for which the inhibition result in test [1] and in test [2] was “inactive” in each case.

Turning to `CN1CCCC1CCO[C@](C)(c1ccccc1)c1ccc(Cl)cc1` (stereo partly specified), the inhibition entry in test [1] and in test [2] was “inactive” each time.

With `COc1cccc(OCC(=O)c2ccc(Br)cc2)c1`, the inhibition entry in test [1] and in test [2] was “inactive” throughout.

With `CCNC(=O)C(C)Nc1nc(-c2cccnc2)nc2sc(C)c(C)c12` (stereo unspecified), the inhibition entry in test [1] and in test [2] was “inactive” in each case.

As for `CC1(C)Cc2c(c(N3CCOCC3)nc3snc(Br)c23)CO1`, the inhibition result in test [1] and in test [2] was “inactive” in each case.

`O=C(Nc1cnc2ccccc2c1)c1cccc(-n2cnnn2)c1`: the inhibition result in test [1] and in test [2] was “inactive” in each case.

For the compound `CCOc1ccccc1NC(C)C(=O)Nc1cc(C(F)(F)F)ccc1N1CCOCC1` (stereo unspecified), the inhibition entry in test [1] and in test [2] was “inactive” throughout.

In the case of `O=C(Nc1nc(-c2ccccn2)cs1)c1cncn1-c1ccccc1`, the inhibition result in test [1] and in test [2] was “inactive” in each case.

As for `CNC(=O)C1Cc2c([nH]c3cc(Cl)ccc23)C2(CCN(CCc3ccccc3)CC2)N1` (stereo unspecified), the inhibition result in test [1] and in test [2] was “inactive” throughout.

Regarding `Cc1nn2c(O)c3c(nc2c1-c1ccc(F)cc1)CCCC3`, the inhibition result in test [1] and in test [2] was “inactive” throughout.

For `CCN(CC)CCCN1CCN(C(=O)c2cccc(-c3noc(C(F)(F)F)n3)c2)CC1`, the inhibition entry in test [1] and in test [2] was “inactive” in each case.

Consider `Cc1ccc(-c2cc(C(=O)Nc3cccnc3)c3cc(Br)ccc3n2)cc1`, for which the inhibition result in test [1] and in test [2] was “inactive” each time.

`CN1CCC(c2cc(-c3ccncc3)c(-c3ccc(F)cc3)[nH]2)CC1`: the inhibition entry in test [1] and in test [2] was “inactive” throughout.

Turning to `CCCCc1ccc(C(=O)Nc2nccc3ccccc23)nc1`, the inhibition entry in test [1] and in test [2] was “inactive” throughout.

Source of the values: ChEMBL document CHEMBL3987221, “The Australian National University Dept Of Immunology Pathogen Box Compounds Screened” (2018).
